For assay [1], the system named is p21 promoter. As to the kind of experiment: Cell-based p21 promoter luciferase screen with IC50 validation in H1299 cells with doxycycline-inducible p53. As to conditions: luciferase under p21 promoter, about 20 hours. The procedure: A cell-based screen was carried out to identify p21 inhibitors (FIG. 1a). H1299 cells (a cell line having a deletion in the p53 locus) were used. The H1299 cells contain a TetOn system for the inducible expression of p53. In addition, they contain luciferase under the control of the p21 promoter, which is activated by p53. Intracellular p53 expression was induced with doxycycline (0.5 μg/ml). Immediately thereafter, cells were exposed to test substances (5 μM) of the ChemBioNet collection (Leibniz Institut far Molekulare Pharmakologie, Berlin). About 20 hours later, cells were lysed and luciferase activity was determined. […]

The test system of assay [2] is wound healing in C57BL/6 mice. As to the kind of experiment: Wound healing after skin biopsy in C57BL/6 mice, intradermal injection. In kind it is in vivo. An excerpt:
FIG. 4: I-18 treatment improves wound healing in 24 week C57BL/6 mice Skin-biopsies (4-5 mm) were taken at Day 0 (D0) and lesions were either treated with 118 inhibitor (right panel) or DMSO treated as control (left panel).
FIG. 5: Depicts a statistic evaluation of the wound healing area 0, 2, and 4 days after application of I18 or placebo to wound area. Skin biopsies (4-5 mm) were taken at Day 0 of young and old C57Bl6 mice and lesions were either treated with I18 inhibitor or DMSO. […] This trend further increased at Day 4.
Skin-biopsies (4-5 mm) were taken at Day 0 (D0) and lesions were either treated with I18 compound (FIG. 4, right panel) or DMSO as control (FIG. 4, left panel) by intradermal injection [50 μM].

The subject of assay [3] is p21-mRNA. Put plainly: p21-mRNA expression by qPCR in organs of Nothobranchius furzeri after intraperitoneal injection. In kind it is in vivo. As to conditions: all tissues tested, 10 μM intraperitoneal, 48 h post treatment. As for the experimental part: FIG. 6: Decreased p21-mRNA expression in different organs of model organism Nothobranchius furzeri in response to I18-inhibitor treatment. p21-mRNA expression in different organs was analysed by quantitative PCR (qPCR) in response to treatment with the p21-inhibitor I18. Upper panel depicts the fold expression difference of p21-mRNA relative to tbp (TATA-box binding protein). Lower panel depicts fold expression of p21-mRNA relative to control (DMSO-treated animals). Note that there is an over 2-fold reduction in all tissues tested indicating the efficiency of p21-inhibitors across different species. 10 weeks old Nothobranchius furzeri were either injected intraperitoneal with I18-compound [10 μM] or with DMSO as control and sacrificed 48 h post treatment. RNA of various tissues was harvested and p21-mRNA expression was measured using quantitative PCR (qPCR). Fold expression was calculated relative to house-keeping gene tbp (TATA-box binding protein) (FIG. 6, upper panel) or control animals (FIG. 6, lower panel).

[4] abbreviates: Homo sapiens, NCI-H1299, p53 induced with doxycycline 0.5 μg/ml.

The structures appear in SMILES notation.

`Cc1ccc2[nH]c3c(c2c1)CCCC3Nc1ccccc1` (centres unmarked) [I18, 6-methyl-N-phenyl-2,3,4,9-tetrahydro-1H-carbazol-1-amine] yielded an IC50 in assay [1] (setting [4]) of 170 nM. The “wound healing in old treated mice versus p21-deficient mice” value in assay [2] (after 4 days, old mice) is “comparable to p21-deficient mice”. The “wound healing of old mice compared to mock treated control mice of the same age” value in assay [2] (day 2, old C57Bl6 mice, trend further increased at day 4) is recorded as “significantly improved”. In addition, the “wound healing compared to DMSO treated control mice” value in assay [2] (day 2 and 4, skin biopsies 4-5 mm, intradermal injection 50 μM) is given as “significantly improved”. Moreover, the “reduction of p21-mRNA expression relative to control (DMSO-treated animals)” value in assay [3] is “over 2 fold”.
In turn, `COc1ccc(C2C(C#N)=C(N)Oc3c2ccc2ccccc32)cc1C` (centres unmarked) [A6, 2-amino-4-(4-methoxy-3-methylphenyl)-4H-benzo[h]chromene-3-carbonitrile] came in with a half-inhibitory concentration (IC50) in assay [1] (setting [4]) of 1130 nM.
Same read-out and setting: the value for `CCc1ccc2c(c1)C1(NN=C(c3cccc4ccccc34)S1)C(=O)N2` (centres unmarked) [O6, 5-Ethyl-5′naphthalen-1-ylspiro[1H-indole-3,2′-3H-1,3,4-thiadiazole]-2-one] was 3680 nM; that for `Cc1c(Br)ccc(Nc2c([N+](=O)[O-])cc3c4c(cccc24)C(=O)N(CCO)C3=O)c1C` [M3, 6-(4-Bromo-2,3-dimethylanilino)-2-(2-hydroxyethyl)-5-nitrobenzo[de]isoquinoline-1,3-dione] was 3580 nM; that for `CC(C)c1ccc(-c2c(C#N)c(N)n3c(nc4ccccc43)c2C#N)cc1` [N13, 1-Amino-3-(4-propan-2-ylphenyl)pyrido[1,2-a]benzimidazole-2,4-dicarbonitrile] was 1110 nM.
As for `O=c1c2ccccc2c2nccc3c4cc(O)ccc4n1c32` [P21, 5-hydroxy-9H-benzo[c]indolo[3,2,1-ij][1,5]naphthyridin-9-one], in assay [1] (setting [4]), the IC50 was determined as 1070 nM.
Molecule `NS(=O)(=O)c1ccc(CCNc2ncnc3c2c(-c2ccccc2)cn3-c2ccc(Br)cc2)cc1` [F3, 4-[2-[[7-(4-Bromophenyl)-5-phenylpyrrolo[2,3-d]pyrimidin-4-yl]amino]ethyl]benzenesulfonamide] registered an IC50 in assay [1] (setting [4]) of 6080 nM.
In turn, `O=C(Nc1ccc(OCC(F)(F)C(F)F)c(C(F)(F)F)c1)c1ccccc1O` [K2, 2-Hydroxy-N-[4-(2,2,3,3-tetrafluoropropoxy)-3-(trifluoromethyl)phenyl)benzamide] yielded an IC50 in assay [1] (setting [4]) of 1720 nM.
On to `CCOC(=O)c1ccc(Nc2nc3nonc3nc2Nc2cccc(C)c2C)cc1` [A13, Ethyl-4-[[5-(2,3-dimethylanilino)-[1,2,5]oxadiazolo[3,4-b]pyrazin-6-yl]amino]benzoate], for which the IC50 in assay [1] (setting [4]) came to 760 nM.
`COc1ccc(C(=O)Nc2nc(NC(=O)c3ccc(F)cc3)nn2-c2ccccc2)cc1` [E6, N-[5-[(4-Fluorobenzoyl)amino]-2-phenyl-1,2,4-triazol-3-y1]-4-methoxybenzamide] gave an IC50 in assay [1] (p53 induced with doxycycline 0.5 μg/ml) of 490 nM.
